Experiments:
Assay in all cases: KiNativ kinome profiling in PANC-1 lysate
Format in all cases: binding
DGKA = molecular target: T1, DGKA (Homo sapiens, UniProt P23743); conditions: ATP
T1 construct: endogenous in cells; host or cells: PANC-1 lysate
How it was run: (§1)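 PANC-1 lysates were incubated with 5 μM inhibitor or DMSO, then labeled with a desthiobiotin-ATP acyl-phosphate probe that biotinylates conserved kinase lysines. Tryptic peptides were streptavidin-enriched and quantified by LC-MS/MS, reported as % change in MS signal from duplicate treated and duplicate control samples.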

EphA2 = molecular target: T2, EphA2 (Homo sapiens, UniProt P29317); conditions: ATP Loop
T2 construct: endogenous in cells; host or cells: PANC-1 lysate
How it was run: as §1

EphB3 = molecular target: T3, EphB3 (Homo sapiens, UniProt P54753); conditions: ATP Loop
T3 construct: endogenous in cells; host or cells: PANC-1 lysate
How it was run: as §1

Erk2 = molecular target: T4, Erk2 (Homo sapiens, UniProt P28482); conditions: Lys2
T4 construct: endogenous in cells; host or cells: PANC-1 lysate
T4 sequence (P28482 whole entry): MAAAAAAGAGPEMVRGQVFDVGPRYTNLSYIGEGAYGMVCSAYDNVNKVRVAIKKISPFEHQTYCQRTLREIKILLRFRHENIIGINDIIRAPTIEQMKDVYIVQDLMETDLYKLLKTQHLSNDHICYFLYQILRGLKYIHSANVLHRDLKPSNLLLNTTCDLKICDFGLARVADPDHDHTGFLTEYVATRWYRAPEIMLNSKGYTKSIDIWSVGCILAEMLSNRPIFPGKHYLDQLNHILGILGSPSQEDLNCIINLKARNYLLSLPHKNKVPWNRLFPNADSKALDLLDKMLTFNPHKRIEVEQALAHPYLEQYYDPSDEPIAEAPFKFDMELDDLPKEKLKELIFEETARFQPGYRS
How it was run: as §1

JNK1, JNK2, JNK3 = conditions: 5 µM; Lys2; DLKPSNIVVK
How it was run: as §1

MAP2K3 = molecular target: T5, MAP2K3 (Homo sapiens, UniProt P46734)
T5 construct: endogenous in cells; host or cells: PANC-1 cell lysate
T5 sequence (P46734 1-347): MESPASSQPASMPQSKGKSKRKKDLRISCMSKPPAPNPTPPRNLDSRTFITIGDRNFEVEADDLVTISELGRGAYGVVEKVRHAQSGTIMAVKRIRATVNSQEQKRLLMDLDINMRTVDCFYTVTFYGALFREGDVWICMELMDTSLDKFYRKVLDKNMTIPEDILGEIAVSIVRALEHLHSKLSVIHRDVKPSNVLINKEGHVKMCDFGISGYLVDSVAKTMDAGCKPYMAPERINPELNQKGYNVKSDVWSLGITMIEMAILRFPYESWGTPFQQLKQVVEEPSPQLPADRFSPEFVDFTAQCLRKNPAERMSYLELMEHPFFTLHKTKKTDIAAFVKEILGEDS
How it was run: as §1

MAP3K15, MAP3K5, MAP3K6 = conditions: 5 µM; Lys1; IAIKEIPER
How it was run: as §1

MET = molecular target: T6, MET (Homo sapiens, UniProt P08581); conditions: ATP Loop
T6 construct: endogenous in cells; host or cells: PANC-1
How it was run: as §1

[1] = tested on: MSK1 domain1, MSK2 domain1; conditions: 5 µM; ATP Loop; VLGTGAYGKVFLVR
How it was run: as §1

MST1, MST2 = conditions: 5 µM
How it was run: as §1

MST4, YSK1 = conditions: 5 µM; Lys2; DIKAANVLLSEQGDVK
How it was run: as §1

PIP4K2B = molecular target: T7, PIP4K2B (Homo sapiens, UniProt P78356); conditions: ATP
T7 construct: endogenous in cells; host or cells: PANC-1 cell lysate
How it was run: as §1

PKCd = molecular target: T8, PKCd (Homo sapiens, UniProt Q05655)
T8 construct: endogenous in cells; host or cells: PANC-1 cell lysate
T8 sequence (Q05655 whole entry): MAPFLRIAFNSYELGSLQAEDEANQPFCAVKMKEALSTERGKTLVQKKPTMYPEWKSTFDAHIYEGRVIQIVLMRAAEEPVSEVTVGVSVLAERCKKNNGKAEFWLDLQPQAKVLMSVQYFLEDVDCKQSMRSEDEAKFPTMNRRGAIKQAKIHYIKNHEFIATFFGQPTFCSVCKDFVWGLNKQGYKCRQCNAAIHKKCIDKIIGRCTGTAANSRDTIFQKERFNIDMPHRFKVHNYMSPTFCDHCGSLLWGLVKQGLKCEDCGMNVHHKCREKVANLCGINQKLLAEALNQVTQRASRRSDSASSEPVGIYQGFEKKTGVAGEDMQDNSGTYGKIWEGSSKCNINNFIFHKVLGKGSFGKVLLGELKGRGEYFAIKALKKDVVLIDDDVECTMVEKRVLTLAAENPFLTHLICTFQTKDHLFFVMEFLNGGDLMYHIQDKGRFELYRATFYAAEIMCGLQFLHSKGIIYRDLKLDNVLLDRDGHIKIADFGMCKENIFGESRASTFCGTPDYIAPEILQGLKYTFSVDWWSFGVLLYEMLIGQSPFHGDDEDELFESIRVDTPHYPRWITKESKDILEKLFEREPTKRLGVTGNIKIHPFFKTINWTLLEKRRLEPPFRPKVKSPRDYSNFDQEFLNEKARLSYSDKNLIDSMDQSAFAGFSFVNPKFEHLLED
How it was run: as §1

PKN1 = molecular target: T9, PKN1 (Homo sapiens, UniProt Q16512)
T9 construct: endogenous in cells; host or cells: PANC-1 cell lysate
T9 sequence (Q16512 whole entry): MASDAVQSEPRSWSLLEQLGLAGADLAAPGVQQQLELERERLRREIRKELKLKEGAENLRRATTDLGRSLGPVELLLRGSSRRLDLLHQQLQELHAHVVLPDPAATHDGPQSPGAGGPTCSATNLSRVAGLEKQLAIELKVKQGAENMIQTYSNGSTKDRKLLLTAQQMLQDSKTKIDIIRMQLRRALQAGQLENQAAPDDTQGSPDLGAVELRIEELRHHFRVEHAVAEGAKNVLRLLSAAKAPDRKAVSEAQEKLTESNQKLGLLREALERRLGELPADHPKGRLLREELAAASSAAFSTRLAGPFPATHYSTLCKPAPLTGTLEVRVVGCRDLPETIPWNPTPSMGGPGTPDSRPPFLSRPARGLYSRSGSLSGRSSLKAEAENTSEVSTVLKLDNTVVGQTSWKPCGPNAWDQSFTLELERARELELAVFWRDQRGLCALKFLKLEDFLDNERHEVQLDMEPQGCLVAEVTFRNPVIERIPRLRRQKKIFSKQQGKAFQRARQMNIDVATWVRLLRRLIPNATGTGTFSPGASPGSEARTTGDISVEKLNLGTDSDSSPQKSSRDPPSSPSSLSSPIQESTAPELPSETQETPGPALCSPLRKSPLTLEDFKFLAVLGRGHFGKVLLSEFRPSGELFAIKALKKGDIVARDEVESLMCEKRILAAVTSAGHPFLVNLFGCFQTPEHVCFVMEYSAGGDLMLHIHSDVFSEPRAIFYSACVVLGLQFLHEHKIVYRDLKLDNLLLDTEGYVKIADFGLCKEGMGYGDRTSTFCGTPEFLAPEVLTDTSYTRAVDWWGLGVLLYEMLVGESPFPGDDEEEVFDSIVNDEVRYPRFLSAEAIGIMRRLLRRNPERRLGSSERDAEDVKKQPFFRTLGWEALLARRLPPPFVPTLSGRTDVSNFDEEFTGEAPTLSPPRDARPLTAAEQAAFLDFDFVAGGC
How it was run: as §1

RIPK1 = molecular target: T10, RIPK1 (Homo sapiens, UniProt Q13546); conditions: Lys2
T10 construct: endogenous in cells; host or cells: PANC-1 cell lysate
How it was run: as §1

RSK2 domain1 = molecular target: T11, RSK2 domain1 (Homo sapiens, UniProt P51812)
T11 construct: endogenous in cells; host or cells: PANC-1 cell lysate
T11 sequence (P51812 whole entry, the tested form may be a part): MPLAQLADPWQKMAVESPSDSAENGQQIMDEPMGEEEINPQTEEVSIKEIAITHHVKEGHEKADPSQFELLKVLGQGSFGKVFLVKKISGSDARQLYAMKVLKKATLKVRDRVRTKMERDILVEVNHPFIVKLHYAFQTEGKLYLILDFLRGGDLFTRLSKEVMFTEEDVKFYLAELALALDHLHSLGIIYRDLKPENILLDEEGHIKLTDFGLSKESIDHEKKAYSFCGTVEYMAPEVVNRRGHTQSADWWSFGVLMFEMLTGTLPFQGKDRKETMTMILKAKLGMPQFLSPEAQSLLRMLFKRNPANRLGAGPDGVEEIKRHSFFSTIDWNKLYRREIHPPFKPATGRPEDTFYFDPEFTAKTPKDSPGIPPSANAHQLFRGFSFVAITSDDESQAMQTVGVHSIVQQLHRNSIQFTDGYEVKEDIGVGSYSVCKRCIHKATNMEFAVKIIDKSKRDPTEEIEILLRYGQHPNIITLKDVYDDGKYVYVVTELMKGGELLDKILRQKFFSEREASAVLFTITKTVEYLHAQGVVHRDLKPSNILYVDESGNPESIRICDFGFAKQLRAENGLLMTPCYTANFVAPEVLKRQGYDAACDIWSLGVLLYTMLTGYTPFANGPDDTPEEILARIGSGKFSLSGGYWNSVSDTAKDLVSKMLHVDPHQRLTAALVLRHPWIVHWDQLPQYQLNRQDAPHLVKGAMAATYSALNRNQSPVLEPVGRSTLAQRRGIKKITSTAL
How it was run: as §1

RSK2 domain2 = molecular target: T12, RSK2 domain2 (Homo sapiens, UniProt P51812); conditions: Lys2
T12 construct: endogenous in cells; host or cells: PANC-1 cell lysate
T12 sequence (P51812 whole entry, the tested form may be a part): as above
How it was run: as §1

SIK = molecular target: T13, SIK (Homo sapiens, UniProt P57059); conditions: Lys1
T13 construct: endogenous in cells; host or cells: PANC-1 cell lysate
How it was run: as §1

SRPK1 = molecular target: T14, SRPK1 (Homo sapiens, UniProt Q96SB4); conditions: Lys2
T14 construct: endogenous in cells; host or cells: PANC-1 cell lysate
How it was run: as §1

STK33 = molecular target: T15, STK33 (Homo sapiens, UniProt Q9BYT3); conditions: Lys2
T15 construct: endogenous in cells; host or cells: PANC-1 cell lysate
T15 sequence (Q9BYT3 whole entry): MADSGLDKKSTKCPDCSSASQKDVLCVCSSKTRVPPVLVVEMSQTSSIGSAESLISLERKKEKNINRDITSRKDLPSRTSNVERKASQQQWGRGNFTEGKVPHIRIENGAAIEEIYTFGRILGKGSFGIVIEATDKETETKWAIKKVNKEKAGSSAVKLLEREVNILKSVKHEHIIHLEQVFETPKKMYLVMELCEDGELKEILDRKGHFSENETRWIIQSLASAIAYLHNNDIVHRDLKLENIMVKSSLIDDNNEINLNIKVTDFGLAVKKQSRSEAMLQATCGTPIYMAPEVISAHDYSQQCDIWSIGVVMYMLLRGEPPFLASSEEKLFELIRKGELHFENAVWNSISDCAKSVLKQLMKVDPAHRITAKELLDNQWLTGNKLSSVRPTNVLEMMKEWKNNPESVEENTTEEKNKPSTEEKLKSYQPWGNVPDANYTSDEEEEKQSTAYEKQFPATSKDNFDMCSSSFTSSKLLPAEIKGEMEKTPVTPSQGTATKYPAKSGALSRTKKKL
How it was run: as §1

TLK2 = molecular target: T16, TLK2 (Homo sapiens, UniProt Q86UE8)
T16 construct: endogenous in cells; host or cells: PANC-1 cell lysate
T16 sequence (Q86UE8 whole entry): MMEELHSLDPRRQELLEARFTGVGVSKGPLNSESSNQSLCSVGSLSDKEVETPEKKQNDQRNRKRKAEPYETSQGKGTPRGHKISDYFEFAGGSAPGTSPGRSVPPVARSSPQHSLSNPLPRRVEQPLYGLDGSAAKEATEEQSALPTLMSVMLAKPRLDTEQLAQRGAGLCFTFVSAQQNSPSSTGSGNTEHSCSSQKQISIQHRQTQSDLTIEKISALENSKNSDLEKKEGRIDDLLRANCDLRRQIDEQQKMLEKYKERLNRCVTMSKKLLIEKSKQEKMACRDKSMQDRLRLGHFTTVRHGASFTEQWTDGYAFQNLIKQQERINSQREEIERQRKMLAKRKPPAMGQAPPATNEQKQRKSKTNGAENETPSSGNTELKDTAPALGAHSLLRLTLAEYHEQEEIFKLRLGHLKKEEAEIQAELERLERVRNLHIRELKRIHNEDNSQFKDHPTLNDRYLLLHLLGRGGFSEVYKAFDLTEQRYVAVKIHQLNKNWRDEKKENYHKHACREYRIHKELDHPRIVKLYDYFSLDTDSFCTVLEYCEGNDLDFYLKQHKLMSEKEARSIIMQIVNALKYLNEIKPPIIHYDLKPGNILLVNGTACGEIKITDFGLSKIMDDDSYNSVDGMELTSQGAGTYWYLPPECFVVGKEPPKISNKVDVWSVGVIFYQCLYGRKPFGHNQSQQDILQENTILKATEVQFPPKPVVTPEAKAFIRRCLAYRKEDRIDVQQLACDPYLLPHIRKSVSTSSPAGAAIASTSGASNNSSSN
How it was run: as §1

eEF2K = molecular target: T17, eEF2K (Homo sapiens, UniProt O00418); conditions: ATP
T17 construct: endogenous in cells; host or cells: PANC-1 lysate
How it was run: as §1

T1 sequence (P23743 whole entry): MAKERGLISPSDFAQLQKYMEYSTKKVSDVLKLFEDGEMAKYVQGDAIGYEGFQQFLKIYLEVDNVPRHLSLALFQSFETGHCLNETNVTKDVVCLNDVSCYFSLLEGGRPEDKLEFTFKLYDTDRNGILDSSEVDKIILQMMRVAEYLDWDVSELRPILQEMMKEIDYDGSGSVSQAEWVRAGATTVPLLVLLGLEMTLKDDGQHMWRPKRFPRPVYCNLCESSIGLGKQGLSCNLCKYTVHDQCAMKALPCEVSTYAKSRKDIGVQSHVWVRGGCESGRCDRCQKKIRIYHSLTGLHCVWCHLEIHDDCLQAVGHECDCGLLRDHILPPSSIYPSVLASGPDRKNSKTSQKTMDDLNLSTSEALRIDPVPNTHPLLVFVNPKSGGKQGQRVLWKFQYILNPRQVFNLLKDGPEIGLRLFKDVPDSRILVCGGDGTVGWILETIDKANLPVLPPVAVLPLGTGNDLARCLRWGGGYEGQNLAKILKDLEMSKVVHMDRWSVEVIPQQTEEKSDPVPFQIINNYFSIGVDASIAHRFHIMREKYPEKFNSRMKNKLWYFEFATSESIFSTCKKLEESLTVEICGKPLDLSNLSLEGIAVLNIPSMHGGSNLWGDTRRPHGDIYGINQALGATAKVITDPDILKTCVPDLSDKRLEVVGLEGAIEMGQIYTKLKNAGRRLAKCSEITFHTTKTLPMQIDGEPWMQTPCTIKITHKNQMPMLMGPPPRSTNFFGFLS

SMILES: Cn1cc(-c2cnc3ccc(NC(=O)Nc4ccc(F)c(C(F)(F)F)c4)cc3n2)cn1 [51-106, 1-(4-Fluoro-3-(trifluoromethyl)phenyl)-3-(3-(1-methyl-1H-pyrazol-4-yl)quinoxalin-6-yl)urea]
- inhibition at 5 µM (DGKA): ≤ 0%
- inhibition at 5 µM (EphA2): ≤ 0%
- inhibition at 5 µM (EphB3): 1.6%
- inhibition at 5 µM (Erk2): ≤ 0%
- % Inhibition (JNK1, JNK2, JNK3): NB (NB = No Binding (≤ 0))
- inhibition at 5 µM (MAP2K3; ATP Loop, MCDFGISGYLVDSVAKTMDAGCKPYMAPER): ≤ 0%
- inhibition at 5 µM (MAP2K3; Lys1, HAQSGTIMAVKR): ≤ 0%
- inhibition at 5 µM (MAP2K3; Lys2, DVKPSNVLINK): 18.5%
- % Inhibition (MAP3K15, MAP3K5, MAP3K6): NB (NB = No Binding (≤ 0))
- inhibition at 5 µM (MET): 8.3%
- % Inhibition [1]: 0.1%
- % Inhibition (MST1, MST2; ATP Loop, LADFGVAGQLTDTMAKR): 2.7%
- % Inhibition (MST1, MST2; Lys2, DIKAGNILLNTEGHAK): NB (NB = No Binding (≤ 0))
- % Inhibition (MST4, YSK1): 12.8%
- inhibition at 5 µM (PIP4K2B): ≤ 0%
- inhibition at 5 µM (PKCd; Lys2, DLKLDNVLLDR): 0.4%
- inhibition at 5 µM (PKCd; Other, KPTMYPEWK): ≤ 0%
- inhibition at 5 µM (PKN1; Lys1, VLLSEFRPSGELFAIKALK): ≤ 0%
- inhibition at 5 µM (PKN1; Lys2, DLKLDNLLLDTEGYVK): 14.3%
- inhibition at 5 µM (RIPK1): 3.7%
- inhibition at 5 µM (RSK2 domain1; ATP Loop, LTDFGLSKESIDHEKK): ≤ 0%
- inhibition at 5 µM (RSK2 domain1; Lys1, QLYAMKVLK): 23.6%
- inhibition at 5 µM (RSK2 domain2): 5.7%
- inhibition at 5 µM (SIK): 23.3%
- inhibition at 5 µM (SRPK1): 4.4%
- inhibition at 5 µM (STK33): 26.6%
- inhibition at 5 µM (TLK2; Lys1, YVAVKIHQLNK): 1.2%
- inhibition at 5 µM (TLK2; Lys2, YLNEIKPPIIHYDLKPGNILLVNGTACGEIK): 1.7%
- inhibition at 5 µM (eEF2K): 6.3%
